Measured values published in patent publication US20200129528A1, “METHODS FOR TREATING BLOOD PRESSURE CONDITIONS USING AMINOSTEROL COMPOSITIONS” (Enterin, Inc., priority 2018, published 2020).
“And” between values parts separate entries of the source, which are not always exact repeats. Equal values may be shown once.

Experiments:
[1] = tested on: patients with PD and constipation; experiment: Phase 2 trial Stage 1: adverse events; assay type: in vivo, human; details: Stage 1, 10 dosed
From the text: Tolerability limits included diarrhea or vomiting.

[2] = tested on: patients with PD and constipation; experiment: Phase 2 trial Stage 2: adverse events; assay type: in vivo, human
Procedure: In Stage 2, 34 patients were evaluated. […] This dose was then maintained (“fixed dose”) fir an additional 3-5 days.

[3] = tested on: patients with PD and constipation; experiment: Phase 2 trial: adverse events in all 44 dosed patients; assay type: in vivo, human
Procedure: Fifty patients were enrolled and 44 were dosed. In Stage 1, 10 patients were dosed, 1 (10%) withdrew prior to completion and 9 (90%) completed dosing. In stage 2, 6 (15%) patients had ≥3 CSBM/week at the end of the run-in period and were excluded, 34 patients were dosed and bowel response was assessable in 31 (91%). Two patients (5.8%) were terminated prior to completion because of recurrent dizziness, and 3 others withdrew during dosing (8.8%): 2 because of diarrhea and 1 because of holiday. Fifteen patients were randomized.
Most AEs were confined to the GI tract (88% in Stage 1 and 63% in Stage 2). The most common AE was nausea which occurred in 4/10 (40%) patients in Stage 1 and in 18/34 (52.9%) in Stage 2 (Table 2). Diarrhea occurred in 4/10 (40%) patients in Stage 1 and 15/34 (44%) in Stage 2. One patient withdrew because of recurrent diarrhea. Other GI related AEs included abdominal pain 11/44 […], flatulence 3/44 (6.8%), vomiting 3/44 (6.8%), worsening of acid reflux 2/44 (4.5%), and worsening of hemorrhoids 1/44 (2.2%). […] The only other noteworthy AE was dizziness 8/44 (18%). Dizziness was graded as moderate in one patient who was receiving an alpha-adrenergic blocking agent (Terazosin). This patient was withdrawn from the study and recovered spontaneously.

[4] = tested on: patients with PD and constipation; experiment: Neurological (CNS) symptoms in Stage 2: UPDRS, MMSE, PDHQ, BDI-II; assay type: in vivo, human; details: for patients in whom hallucinations or delusions improved or disappeared during treatment: 6 patients with hallucinations (5) or delusions (1) at baseline
From the text: (8) Beck Depression Inventory (BDI-II);
(9) Unified Parkinson's Disease Rating Scale (UPDRS), which consists of 42 items in four subscales (Part I=Non-Motor Aspects of Experiences of Daily Living (nM-EDL) (1.1 cognitive impairment, 1.2 hallucinations and psychosis, 1.3 depressed mood, Part II=Motor Aspects of Experiences of Daily Living (M-EDL), Part III=Motor Examination, and Part IV=Motor Complications;
(10) Mini Mental State Examination (MMSE);
(12) The University of Miami Parkinson's Disease Hallucinations Questionnaire (UM-PDHQ);
Exploratory end-points, in addition to constipation, included for example, (i) depression assessed using the Beck Depression Inventory (BDI-II) (Steer et al. 2000) and Unified Parkinson's Disease Rating Scale (UPDRS); (ii) cognition assessed using the Mini Mental State Examination (MMSE) (Palsteia et al. 2018), Unified Parkinson's Disease Rating Scale (UPDRS), and Trail Making Test (TMT); (iii) sleep and REM-behavior disorder (RBI)) using a daily sleep diary, I-Button Temperature Assessment, a REM sleep behavior disorder (RBD) questionnaire (RBDQ) (Stiasny-Kolster et al. 2007), and the UPDRS; (iv) hallucinations assessed using the PD hallucinations questionnaire (PDHQ) (Papapetropoulos et al. 2008), the UPDRS, and direct questioning; (v) fatigue using the Parkinson's Disease Fatigue Scale (PFS-16) and the UPDRS; (vi) motor functions using the UPDRS; and (vii) non-motor functions using the UPDRS.
Assessments were made at baseline and at the end of the fixed dose and washout periods. Circadian system status was evaluated by continuously monitoring wrist skin temperature (Thermochron iButton DS1921H; Maxim, Dallas) following published procedures (Sarabia et al. 2008).
An exploratory analysis was done with respect to the sleep data, the body temperature data, mood, fatigue, hallucinations, cognition and other motor and non-motor symptoms of PD. Continuous measurements within a subject were compared with a paired t-test and continuous measurements between subject groups were compared with a two-group t-test. Categorical data were compared with a chi-squared test or a Fisher's exact test if the expected cell counts are too small for a chi-squared test.

[5] = tested on: patients with PD and constipation; experiment: Sleep diary in Stage 2: total sleep time, arm or leg thrashing (RBD); assay type: in vivo, human; details: baseline to maximal dose
Procedure: FIG. 3 is a chart of total sleep time in relation to squalamine dose. Total sleep time was obtained from the sleep diary by subtracting awake time during the night from total time spent in bed. Total sleep time per night was logged for each patient at baseline, each dosing period and at washout, and the means were determined. The light grey bar represents the baseline value for each cohort at a given dose level and the dark grey bar represents the value for the same cohort at the stated dose of squalamine (ENT-01; Kenterin™). The number of patients represented at each value are: Baseline, 33; 75 mg, 21; 100 mg, 28; 125 mg, 18; 150 mg, 15; 175 mg, 12; 200 mg, 7; 225 mg, 3; 250 mg, 2; washout, 33. P values were as follows: 75 mg, p=0.4; 100 mg, p=0.1; 125 mg, p=0.3; 150 mg, p=0.07; 175 mg, p=0.03; 200 mg, p=0.3; 225 mg, p=0.5; 250 mg, p=0.3; wash-out, p=0.04 (paired t test).
(5) Sleep Diary (participants completed a sleep diary on a daily basis throughout the study. The diaries included time into bed and estimated time to sleep as well as wake time and duration during the night.); […]

[6] = tested on: patients with PD and constipation; experiment: Systolic blood pressure in Stage 1 (single dose); assay type: in vivo, human; details: lying position
From the text: Normalization refers to lowering high blood pressure and raising low blood pressure into normal ranges. The numbers shown in the graph represent baseline BP then highest treatment BP, both in the lying position, pre-medication. The result is significant despite the small sample size (p=0.01).

[7] = parameters: species or system rats; details: rat, in vivo

## CC(C)[C@@H](CC[C@@H](C)[C@H]1CC[C@H]2[C@@H]3[C@H](O)C[C@H]4C[C@@H](NCCCNCCCCN)CC[C@]4(C)[C@H]3CC[C@]12C)OS(=O)(=O)O (single isomer, unassigned) [ENT-01, squalamine]
[1]
  Abdominal pain, mild: 2(20) n, %
  Abdominal pain, moderate: 3(30) n, %
  Diarrhea, mild: 1(10) n, %
  Diarrhea, moderate: 3(30) n, %
  Flatulence, mild: 2(20) n, %
  Headache, mild: 1(10) n, %
  Vomiting, mild: 1(10) n, %
[1]; unrelated to ENT-01
  Blood in urine, mild: 1(10) n, %
  Loss of appetite, mild: 1(10) n, %
[2]; Stage 2
  patients who withdrew during dosing because of diarrhea: 2
[2]; Stage 2, 34 dosed
  Difficulty falling asleep, mild: 1(3)^ n, %
  Eye infection, mild: 1(3)^ n, %
  Flatulence, mild: 1(3)^ n, %
  Urinary retention, mild: 1(3)^ n, %
  Urinary tract infection, mild: 1(3)^ n, %
  Worsening hemorrhoid, mild: 1(3)^ n, %
[3]; human, in vivo
  outcome of all other AEs: resolved spontaneously without discontinuation
[3]; one patient, during the withdrawal period, on aspirin, naproxen and clopidogrel
  lower GI bleed (serious adverse event), relation to drug: unrelated to study medication
[4]; 1 patient
  time without return of hallucinations/delusions after discontinuation: 4 weeks
[4]
  patients in whom hallucinations or delusions improved or disappeared during treatment: five
[4]; listed as aminosterol
  patients in whom hallucinations or delusions improved or disappeared during treatment: five and 5 of 6
[4]; listed as squalamine (ENT-01)
  patients in whom hallucinations or delusions improved or disappeared during treatment: 5 of 6
[4]; another patient
  time without return of hallucinations/delusions after discontinuation: 2 weeks
[5]
  improvement of arm or leg thrashing frequency: 100%
[6]
  effect on systolic BP: normalization of systolic BP
[7]
  oral bioavailability: limited bioavailability
[7]; po
  absorption from the intestine: low
